Measured values as given in patent publication US20230257385A1, “SALT AND SOLID FORMS OF TABERNANTHALOG” (priority 2021, published 2023).

Columns and labels:
[1] = Suspension equilibration of sorbate salt at 20 and 40° C. (Example 10, Experiments 3, 4, 9); type: physicochemical; conditions: one solvent per sample; for Observations (t = 1 d @ 20° C.) / Observations (t = 10 d @ 20° C.) / Observations (t = 1 d @ 40° C.) / Observations (t = 10 d @ 40° C.): sorbate salt Form A in 5 vol solvent; for Observations (t = 0 @ 20° C.) / Observations (t = 0 @ 40° C.): sorbate salt Form A, ca. 50 mg in 5 vol solvent; for XRPD (IPC, 6 d, wet): moist pellet after 6 d; for XRPD (post oven dried): pellet after oven drying
Procedure: The purpose of this panel is to determine if Form A evolves into a supra-ordinate form. The companion panel at 40° C. set-point is in place to detect enantiotropic behaviour via different relative proportions in different solvents. XRPD data of the moist pellets obtained from the suspension equilibration study at 20° C.
The relevant solvent (5 vol) was added to the appropriate vial and the suspensions were stirred and warmed to the predetermined temperature with stirring. […]

[2] = Qualitative solubility screen of Tabernanthalog sorbate salt (Example 10, Experiment 2); type: physicochemical; conditions: Tabernanthalog sorbate salt (input Form A), one solvent per sample; for Assignment (wet pellet XRPD): product crystallised in solubility screen, centrifuged wet pellet; for Assignment (dry pellet XRPD): same pellets dried under reduced pressure
Procedure: The qualitative solubility screen was carried out to determine the range of solvents incorporated into future suspension equilibration panels. Products that crystallised were centrifuged and analysed as wet pellet by XRPD, dried under reduced pressure and re-analysed by XRPD, with selected samples further analysed by TGA and ^1H NMR spectroscopy.
If insoluble at 5 vol, the solvent quantity was increased to 10 vol, 15 vol and 20 vol of the respective solvent. The suspensions that occurred upon cooling down were centrifuged and the solvent wet pellets were analysed by XRPD.
The insoluble suspensions were additionally worked up for XRPD analysis. The resultant powder patterns were subsequently cross-referenced against the input supplied material.

[3] = suspension equilibration at 20° C.
[4] = suspension equilibration at 40° C.

SMILES: CC=CC=CC(=O)O.COc1ccc2c3c([nH]c2c1)CCN(C)CC3 [Experiment 3-Sample N]
- Observations (t = 1 d @ 20° C.) [1]: Suspension
- Observations (t = 10 d @ 20° C.) [1]: Suspension
- Observations (t = 0 @ 20° C.) [1]: Suspension
- XRPD (IPC, 6 d, wet) [1, 3]: Form A
- XRPD (post oven dried) [1, 3]: Form A

SMILES: C/C=C/C=C/C(=O)O.COc1ccc2c3c([nH]c2c1)CCN(C)CC3 [Experiment 3-Sample C]
- Observations (t = 1 d @ 20° C.) [1]: Suspension
- Observations (t = 10 d @ 20° C.) [1]: Suspension
- Observations (t = 0 @ 20° C.) [1]: Suspension
- XRPD (IPC, 6 d, wet) [1, 3]: Form A
- XRPD (post oven dried) [1, 3]: Form A

SMILES: C/C=C/C=C/C(=O)O.COc1ccc2c3c([nH]c2c1)CCN(C)CC3 [Experiment 4-Sample Q]
- Observations (t = 1 d @ 40° C.) [1]: Suspension
- Observations (t = 10 d @ 40° C.) [1]: Suspension
- Observations (t = 0 @ 40° C.) [1]: Suspension
- XRPD (IPC, 6 d, wet) [1, 4]: Form A
- XRPD (post oven dried) [1, 4]: Form A

SMILES: CC=CC=CC(=O)O.COc1ccc2c3c([nH]c2c1)CCN(C)CC3 [Experiment 2-Sample I1]
- Assignment (wet pellet XRPD) [2]: Oiled

SMILES: CC=CC=CC(=O)O.COc1ccc2c3c([nH]c2c1)CCN(C)CC3 [Experiment 3-Sample S]
- Observations (t = 1 d @ 20° C.) [1]: Solution
- Observations (t = 0 @ 20° C.) [1]: Solution

SMILES: CC=CC=CC(=O)O.COc1ccc2c3c([nH]c2c1)CCN(C)CC3 [Experiment 2-Sample O1]
- Assignment (wet pellet XRPD) [2]: Form A + split reflections
- Assignment (dry pellet XRPD) [2]: Form A

SMILES: CC=CC=CC(=O)O.COc1ccc2c3c([nH]c2c1)CCN(C)CC3.O
- Assignment (wet pellet XRPD) [2]: Pattern #1
- Assignment (dry pellet XRPD) [2]: Converted into Form A

SMILES: C/C=C/C=C/C(=O)O.COc1ccc2c3c([nH]c2c1)CCN(C)CC3 [Experiment 4-Sample E]
- Observations (t = 1 d @ 40° C.) [1]: Solution
- Observations (t = 0 @ 40° C.) [1]: Partial
- XRPD (IPC, 6 d, wet) [1, 4]: Pattern #5

SMILES: CC=CC=CC(=O)O.COc1ccc2c3c([nH]c2c1)CCN(C)CC3 [Experiment 3-Sample T]
- Observations (t = 1 d @ 20° C.) [1]: Solution
- Observations (t = 10 d @ 20° C.) [1]: Solution
- Observations (t = 0 @ 20° C.) [1]: Solution

SMILES: C/C=C/C=C/C(=O)O.COc1ccc2c3c([nH]c2c1)CCN(C)CC3 [Experiment 4-Sample H]
- Observations (t = 1 d @ 40° C.) [1]: Suspension
- Observations (t = 10 d @ 40° C.) [1]: Suspension
- Observations (t = 0 @ 40° C.) [1]: Suspension
- XRPD (IPC, 6 d, wet) [1, 4]: Pattern #3
- XRPD (post oven dried) [1, 4]: Form A

SMILES: CC=CC=CC(=O)O.COc1ccc2c3c([nH]c2c1)CCN(C)CC3 [Experiment 2-Sample L1]
- Assignment (wet pellet XRPD) [2]: Form A
- Assignment (dry pellet XRPD) [2]: Form A

SMILES: CC=CC=CC(=O)O.COc1ccc2c3c([nH]c2c1)CCN(C)CC3 [Experiment 3-Sample B]
- Observations (t = 1 d @ 20° C.) [1]: Suspension
- Observations (t = 10 d @ 20° C.) [1]: Suspension
- Observations (t = 0 @ 20° C.) [1]: Suspension
- XRPD (IPC, 6 d, wet) [1, 3]: Form A
- XRPD (post oven dried) [1, 3]: Form A

SMILES: CC=CC=CC(=O)O.COc1ccc2c3c([nH]c2c1)CCN(C)CC3 [Experiment 4-Sample J]
- Observations (t = 1 d @ 40° C.) [1]: Suspension
- Observations (t = 10 d @ 40° C.) [1]: Suspension
- Observations (t = 0 @ 40° C.) [1]: Suspension
- XRPD (IPC, 6 d, wet) [1, 4]: Form A
- XRPD (post oven dried) [1, 4]: Form A

SMILES: CC=CC=CC(=O)O.COc1ccc2c3c([nH]c2c1)CCN(C)CC3 [Experiment 4-Sample F]
- Observations (t = 1 d @ 40° C.) [1]: Partial
- Observations (t = 0 @ 40° C.) [1]: Partial
- XRPD (IPC, 6 d, wet) [1, 4]: Form A
- XRPD (post oven dried) [1, 4]: Form A

SMILES: C/C=C/C=C/C(=O)O.COc1ccc2c3c([nH]c2c1)CCN(C)CC3 [Experiment 2-Sample N1]
- Assignment (wet pellet XRPD) [2]: Form A + split reflections
- Assignment (dry pellet XRPD) [2]: Form A

SMILES: CC=CC=CC(=O)O.COc1ccc2c3c([nH]c2c1)CCN(C)CC3 [Experiment 2-Sample P1]
- Assignment (wet pellet XRPD) [2]: Form A
- Assignment (dry pellet XRPD) [2]: Form A

SMILES: C/C=C/C=C/C(=O)O.COc1ccc2c3c([nH]c2c1)CCN(C)CC3 [Experiment 4-Sample O]
- Observations (t = 1 d @ 40° C.) [1]: Suspension
- Observations (t = 10 d @ 40° C.) [1]: Suspension
- Observations (t = 0 @ 40° C.) [1]: Suspension

SMILES: C/C=C/C=C/C(=O)O.COc1ccc2c3c([nH]c2c1)CCN(C)CC3 [Experiment 4-Sample B]
- Observations (t = 1 d @ 40° C.) [1]: Suspension
- Observations (t = 10 d @ 40° C.) [1]: Suspension
- Observations (t = 0 @ 40° C.) [1]: Suspension
- XRPD (IPC, 6 d, wet) [1, 4]: Form A
- XRPD (post oven dried) [1, 4]: Form A

SMILES: CC=CC=CC(=O)O.COc1ccc2c3c([nH]c2c1)CCN(C)CC3 [Experiment 3-Sample R]
- Observations (t = 1 d @ 20° C.) [1]: Suspension
- Observations (t = 10 d @ 20° C.) [1]: Suspension
- Observations (t = 0 @ 20° C.) [1]: Suspension
- XRPD (IPC, 6 d, wet) [1, 3]: Pattern #2
- XRPD (post oven dried) [1, 3]: Form A

SMILES: CC=CC=CC(=O)O.COc1ccc2c3c([nH]c2c1)CCN(C)CC3 [Experiment 4-Sample K]
- Observations (t = 1 d @ 40° C.) [1]: Suspension
- Observations (t = 10 d @ 40° C.) [1]: Suspension
- Observations (t = 0 @ 40° C.) [1]: Suspension
- XRPD (IPC, 6 d, wet) [1, 4]: Form A
- XRPD (post oven dried) [1, 4]: Form A

SMILES: CC=CC=CC(=O)O.COc1ccc2c3c([nH]c2c1)CCN(C)CC3 [Experiment 2-Sample Q1]
- Assignment (wet pellet XRPD) [2]: Form A + new shoulders
- Assignment (dry pellet XRPD) [2]: Form A

SMILES: CC=CC=CC(=O)O.COc1ccc2c3c([nH]c2c1)CCN(C)CC3 [Experiment 2-Sample H1]
- Assignment (wet pellet XRPD) [2]: Form A + new shoulders
- Assignment (dry pellet XRPD) [2]: Form A + new shoulders

SMILES: CC=CC=CC(=O)O.COc1ccc2c3c([nH]c2c1)CCN(C)CC3 [Experiment 4-Sample L]
- Observations (t = 1 d @ 40° C.) [1]: Suspension
- Observations (t = 10 d @ 40° C.) [1]: Suspension
- Observations (t = 0 @ 40° C.) [1]: Suspension
- XRPD (IPC, 6 d, wet) [1, 4]: Form A
- XRPD (post oven dried) [1, 4]: Form A

SMILES: CC=CC=CC(=O)O.COc1ccc2c3c([nH]c2c1)CCN(C)CC3 [Experiment 3-Sample L]
- Observations (t = 1 d @ 20° C.) [1]: Suspension
- Observations (t = 10 d @ 20° C.) [1]: Suspension
- Observations (t = 0 @ 20° C.) [1]: Suspension
- XRPD (IPC, 6 d, wet) [1, 3]: Form A
- XRPD (post oven dried) [1, 3]: Form A

SMILES: CC=CC=CC(=O)O.COc1ccc2c3c([nH]c2c1)CCN(C)CC3 [Experiment 2-Sample J1]
- Assignment (wet pellet XRPD) [2]: Form A, some shift of d-spacings
- Assignment (dry pellet XRPD) [2]: Form A

SMILES: CC=CC=CC(=O)O.COc1ccc2c3c([nH]c2c1)CCN(C)CC3 [Experiment 2-Sample G1]
- Assignment (wet pellet XRPD) [2]: Form A
- Assignment (dry pellet XRPD) [2]: Form A

SMILES: CC=CC=CC(=O)O.COc1ccc2c3c([nH]c2c1)CCN(C)CC3 [Experiment 2-Sample R1]
- Assignment (wet pellet XRPD) [2]: Form A
- Assignment (dry pellet XRPD) [2]: Form A

SMILES: COc1ccc2c3c([nH]c2c1)CCN(C)CC3 [Experiment 2-Sample D1]
- Assignment (wet pellet XRPD) [2]: Form A
- Assignment (wet pellet XRPD) ([2]; listed as Experiment 2-Sample E1): Form A + split reflections 5.90º,
- Assignment (dry pellet XRPD) [2]: Form A

SMILES: COc1ccc2c3c([nH]c2c1)CCN(C)CC3.O=C(O)/C=C/C(=O)O [Experiment 2-Sample C1]
- Assignment (wet pellet XRPD) [2]: Form A
- Assignment (dry pellet XRPD) [2]: Form A

SMILES: CC=CC=CC(=O)O.COc1ccc2c3c([nH]c2c1)CCN(C)CC3 [Experiment 2-Sample M1]
- Assignment (wet pellet XRPD) [2]: Form A + shoulder 22.89º 2
- Assignment (dry pellet XRPD) [2]: Form A + new shoulder
